This passage reports IC50 results from patent US20260070945A1, “MACROCYCLIC IMMUNOMODULATORS” (Bristol-Myers Squibb Company, priority 2022, published 2026).

The structures appear in SMILES notation. Where a SMILES comes first, the peptide text is derived from it. Bridges are numbered along the chain shown (N, C = ends). [ ]: non-standard residue; d: D form. The star is where a group is joined. ξ: configuration not given here. Phe(4-COOH) = N[C@@H](Cc1ccc(C(=O)O)cc1)C(=O)O; Bip = N[C@@H](Cc1ccc(-c2ccccc2)cc1)C(=O)O; Phe(3-Me) = Cc1cccc(C[C@H](N)C(=O)O)c1; dIle(3ξ) = CCC(C)[C@@H](N)C(=O)O; Cha = N[C@@H](CC1CCCCC1)C(=O)O; Thr(3ξ) = CC(O)[C@H](N)C(=O)O; hSer = N[C@@H](CCO)C(=O)O; Carboxymethyl = O=C(O)C*; NMeA = CN[C@@H](C)C(=O)O; dNMeA = CN[C@H](C)C(=O)O; Aun = NCCCCCCCCCCC(=O)O; Dab = NCC[C@H](N)C(=O)O; AEEA = NCCOCCOCC(=O)O

For the assay, the target named is T1, PD-1/PD-L1 interaction (PE-labeled human PD-L1-Ig binding to Jurkat cell line over-expressing human PD-1) (Homo sapiens, UniProt Q15116).
T1 construct: expressed in transfected cells; host or cells: Jurkat
T1 sequence (Q15116 25-288): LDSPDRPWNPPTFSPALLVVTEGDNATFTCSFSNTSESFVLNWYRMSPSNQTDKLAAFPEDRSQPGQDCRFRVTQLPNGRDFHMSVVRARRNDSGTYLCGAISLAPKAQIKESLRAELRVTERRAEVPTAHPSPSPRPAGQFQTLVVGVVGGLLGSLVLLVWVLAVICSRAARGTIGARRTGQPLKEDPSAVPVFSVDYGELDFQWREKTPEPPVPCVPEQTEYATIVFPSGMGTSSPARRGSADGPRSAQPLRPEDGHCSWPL
The assay can be described thus: Jurkat-PD-1 Cell Binding High-Content Screening Assay (CBA). To be noted: Jurkat-hPD-1 cells, PE-labeled PD-L1-Ig 20 nM final; read-out: Jurkat HPD1 PDL1 IC50. Summed up: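 Cells 8×10^3/well, DMEM + 10% FCS; cpd 2 h, 37 °C; PE–PD-L1-Ig 20 nM final, 1 h; PFA fix + Hoechst 33342, 3× dPBS wash; high-content imager.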
`CC(=O)NCCCC[C@@H]1NC(=O)[C@H](Cc2ccc(-c3ccccc3)cc2)NC(=O)[C@H](CC(C)C)NC(=O)[C@H](Cc2cccc(C)c2)NC(=O)[C@H](CC(=O)O)NC(=O)[C@H](Cc2ccc(OCC(=O)O)cc2)NC(=O)[C@H](Cc2ccc(OCC(=O)O)cc2)NC(=O)CSC[C@@H](C(=O)NCCOCCOCC(=O)NCCCCCCCCCCC(=O)O)NC(=O)[C@H](CCCCN)NC(=O)[C@H](C(C)C)NC(=O)[C@H](CC2CCCCC2)NC(=O)[C@H](CCN)NC(=O)[C@@H](CC(C)C)NC(=O)[C@H](C)N(C)C1=O` [Example 2223] ({CH2CO}-Y(Carboxymethyl)Y(Carboxymethyl)D[Phe(3-Me)]L[Bip]K(Ac)[NMeA][dL][Dab][Cha]VKC[AEEA][Aun]-OH; thioether N-14): the IC50 (commonly the concentration needed to halve the response being measured) was 10.9 nM. Then `CC(=O)NCCCC[C@@H]1NC(=O)[C@H](Cc2ccc(-c3ccccc3)cc2)NC(=O)[C@H](C(C)C)NC(=O)[C@H](Cc2c[nH]c3ccccc23)NC(=O)[C@H](CC(=O)O)NC(=O)[C@H](Cc2ccc(OCC(=O)O)cc2)NC(=O)[C@H](Cc2ccc(OCC(=O)O)cc2)NC(=O)CSC[C@@H](C(=O)NCCOCCOCC(=O)NCCCCCCCCCCC(=O)O)NC(=O)[C@H](CCCCN)NC(=O)[C@H](C(C)C)NC(=O)[C@H](CC2CCCCC2)NC(=O)[C@H](CCN)NC(=O)[C@@H](CC(C)C)NC(=O)[C@H](C)N(C)C1=O` [Example 2224] ({CH2CO}-Y(Carboxymethyl)Y(Carboxymethyl)DWV[Bip]K(Ac)[NMeA][dL][Dab][Cha]VKC[AEEA][Aun]-OH; thioether N-14), with 5.7 nM; and `CC(C)C[C@@H]1NC(=O)[C@H](Cc2c[nH]c3ccccc23)NC(=O)[C@H](CC(=O)O)NC(=O)[C@H](Cc2ccc(C(=O)O)cc2)NC(=O)[C@H](Cc2ccc(OCC(=O)O)cc2)NC(=O)CSC[C@@H](C(=O)NCCOCCOCC(=O)NCCCCCCCCCCC(=O)O)NC(=O)[C@H](CO)NC(=O)[C@H](C(C)C)NC(=O)[C@H](CC2CCCCC2)NC(=O)[C@H](CCN)NC(=O)[C@@H](CC(C)C)NC(=O)[C@H](C)N(C)C(=O)[C@H](C(C)C)NC(=O)[C@H](Cc2ccc(-c3ccccc3)cc2)NC1=O` [Example 2225] ({CH2CO}-Y(Carboxymethyl)[Phe(4-COOH)]DWL[Bip]V[NMeA][dL][Dab][Cha]VSC[AEEA][Aun]-OH; thioether N-14), with 9.7 nM; and `CC(C)C[C@@H]1NC(=O)[C@H](Cc2c[nH]c3ccccc23)NC(=O)[C@H](CC(=O)O)NC(=O)[C@H](Cc2ccc(C(=O)O)cc2)NC(=O)[C@H](Cc2ccc(OCC(=O)O)cc2)NC(=O)CSC[C@@H](C(=O)NCCOCCOCC(=O)NCCCCCCCCCCC(=O)O)NC(=O)[C@H](CCO)NC(=O)[C@H](C(C)C)NC(=O)[C@H](CC2CCCCC2)NC(=O)[C@H](CCN)NC(=O)[C@@H](CC(C)C)NC(=O)[C@H](C)N(C)C(=O)[C@H](CCC(N)=O)NC(=O)[C@H](Cc2ccc(-c3ccccc3)cc2)NC1=O` [Example 2226] ({CH2CO}-Y(Carboxymethyl)[Phe(4-COOH)]DWL[Bip]Q[NMeA][dL][Dab][Cha]V[hSer]C[AEEA][Aun]-OH; thioether N-14), with 26.7 nM. `CC(C)C[C@@H]1NC(=O)[C@H](Cc2c[nH]c3ccccc23)NC(=O)[C@H](CC(=O)O)NC(=O)[C@H](Cc2ccc(C(=O)O)cc2)NC(=O)[C@H](Cc2ccc(OCC(=O)O)cc2)NC(=O)CSC[C@@H](C(=O)NCCOCCOCC(=O)NCCCCCCCCCCC(=O)O)NC(=O)[C@H](CCO)NC(=O)[C@H](C(C)C)NC(=O)[C@H](CC2CCCCC2)NC(=O)[C@H](CCN)NC(=O)[C@@H](CC(C)C)NC(=O)[C@H](C)N(C)C(=O)[C@H](CCC(N)=O)NC(=O)[C@H](Cc2ccc(-c3ccccc3)cc2)NC1=O` [Example 2227] ({CH2CO}-Y(Carboxymethyl)[Phe(4-COOH)]DWL[Bip]Q[NMeA][dL][Dab][Cha]V[hSer]C[AEEA][Aun]-OH; thioether N-14): the IC50 was 34 nM. Turning to `CC(C)C[C@@H]1NC(=O)[C@H](Cc2c[nH]c3ccccc23)NC(=O)[C@H](CC(=O)O)NC(=O)[C@H](Cc2ccc(C(=O)O)cc2)NC(=O)[C@H](Cc2ccc(OCC(=O)O)cc2)NC(=O)CSC[C@@H](C(=O)NCCOCCOCC(=O)NCCCCCCCCCCC(=O)O)NC(=O)[C@H](CO)NC(=O)[C@H](C(C)C)NC(=O)[C@H](CC2CCCCC2)NC(=O)[C@H](CCN)NC(=O)[C@@H](CC(C)C)NC(=O)[C@H](C)N(C)C(=O)[C@H](Cc2ccc(O)cc2)NC(=O)[C@H](Cc2ccc(-c3ccccc3)cc2)NC1=O` [Example 2228] ({CH2CO}-Y(Carboxymethyl)[Phe(4-COOH)]DWL[Bip]Y[NMeA][dL][Dab][Cha]VSC[AEEA][Aun]-OH; thioether N-14), the IC50 was 52 nM.

Take `CC(=O)NCCCC[C@@H]1NC(=O)[C@H](Cc2ccc(-c3ccccc3)cc2)NC(=O)[C@H](CC(C)C)NC(=O)[C@H](Cc2c[nH]c3ccccc23)NC(=O)[C@H](CC(=O)O)NC(=O)[C@H](Cc2ccc(C(=O)O)cc2)NC(=O)[C@H](Cc2ccc(OCC(=O)O)cc2)NC(=O)CSC[C@@H](C(=O)NCCOCCOCC(=O)NCCCCCCCCCCC(=O)O)NC(=O)[C@H](CO)NC(=O)[C@H](C(C)C)NC(=O)[C@H](CC2CCCCC2)NC(=O)[C@H](CCN)NC(=O)[C@@H](CC(C)C)NC(=O)[C@H](C)N(C)C1=O` [Example 2229] ({CH2CO}-Y(Carboxymethyl)[Phe(4-COOH)]DWL[Bip]K(Ac)[NMeA][dL][Dab][Cha]VSC[AEEA][Aun]-OH; thioether N-14): the IC50 was found to be 4.8 nM. In the case of `CC(=O)NCCCC[C@@H]1NC(=O)[C@H](C(C)C)NC(=O)[C@H](CC2CCCCC2)NC(=O)[C@H](CCN)NC(=O)[C@@H](CC(C)C)NC(=O)[C@H](C)N(C)C(=O)[C@H](CCC(N)=O)NC(=O)[C@H](Cc2ccc(-c3ccccc3)cc2)NC(=O)[C@H](CC(C)C)NC(=O)[C@H](Cc2cccc(C)c2)NC(=O)[C@H](CC(=O)O)NC(=O)[C@H](Cc2ccc(C(=O)O)cc2)NC(=O)[C@H](Cc2ccc(OCC(=O)O)cc2)NC(=O)CSC[C@@H](C(=O)NCCOCCOCC(=O)NCCCCCCCCCCC(=O)O)NC1=O` [Example 2230] ({CH2CO}-Y(Carboxymethyl)[Phe(4-COOH)]D[Phe(3-Me)]L[Bip]Q[NMeA][dL][Dab][Cha]VK(Ac)C[AEEA][Aun]-OH; thioether N-14), the IC50 was found to be 13 nM. In the case of `Cc1cccc(C[C@@H]2NC(=O)[C@H](CC(=O)O)NC(=O)[C@H](Cc3ccc(C(=O)O)cc3)NC(=O)[C@H](Cc3ccc(OCC(=O)O)cc3)NC(=O)CSC[C@@H](C(=O)NCCOCCOCC(=O)NCCCCCCCCCCC(=O)O)NC(=O)[C@H](CCCCN)NC(=O)[C@H](C(C)C)NC(=O)[C@H](CC3CCCCC3)NC(=O)[C@H](CCN)NC(=O)[C@@H](CC(C)C)NC(=O)[C@H](C)N(C)C(=O)[C@H](C(C)C)NC(=O)[C@H](Cc3ccc(-c4ccccc4)cc3)NC(=O)[C@H](CC(C)C)NC2=O)c1` [Example 2231] ({CH2CO}-Y(Carboxymethyl)[Phe(4-COOH)]D[Phe(3-Me)]L[Bip]V[NMeA][dL][Dab][Cha]VKC[AEEA][Aun]-OH; thioether N-14) it was 3.3 nM; in that of `Cc1cccc(C[C@@H]2NC(=O)[C@H](CC(=O)O)NC(=O)[C@H](Cc3ccc(OCC(=O)O)cc3)NC(=O)[C@H](CCCNC(=N)N)NC(=O)CSC[C@@H](C(=O)N[C@@H](CCN)C(=O)NCCCCCCCCCCC(=O)O)NC(=O)[C@H](C(C)O)NC(=O)[C@H](C(C)C)NC(=O)[C@H](CC3CCCCC3)NC(=O)[C@H](CCN)NC(=O)[C@@H](CC(C)C)NC(=O)[C@H](C)N(C)C(=O)[C@H](CCC(N)=O)NC(=O)[C@H](Cc3ccc(-c4ccccc4)cc3)NC(=O)[C@H](C(C)C)NC2=O)c1` (stereo partly drawn) [Example 2233] ({CH2CO}-RY(Carboxymethyl)D[Phe(3-Me)]V[Bip]Q[NMeA][dL][Dab][Cha]V[Thr(3ξ)]C[Dab][Aun]-OH; thioether N-14), 9.7 nM; in that of `CC(C)C[C@@H]1NC(=O)[C@H](Cc2c[nH]c3ccccc23)NC(=O)[C@H](CC(=O)O)NC(=O)[C@H](Cc2ccc(C(=O)O)cc2)NC(=O)[C@H](Cc2ccc(OCC(=O)O)cc2)NC(=O)CSC[C@@H](C(=O)N[C@H](CC(N)=O)C(=O)NCCCCCCCCCCC(=O)O)NC(=O)[C@H](CO)NC(=O)[C@H](C(C)C)NC(=O)[C@H](CC2CCCCC2)NC(=O)[C@H](CCN)NC(=O)[C@@H](CC(C)C)NC(=O)[C@H](C)N(C)C(=O)[C@H](C(C)C)NC(=O)[C@H](Cc2ccc(-c3ccccc3)cc2)NC1=O` [Example 2234] ({CH2CO}-Y(Carboxymethyl)[Phe(4-COOH)]DWL[Bip]V[NMeA][dL][Dab][Cha]VSC[dN][Aun]-OH; thioether N-14), 13.4 nM. Then `Cc1cccc(C[C@@H]2NC(=O)[C@H](CC(=O)O)NC(=O)[C@H](Cc3ccc(C(=O)O)cc3)NC(=O)[C@H](Cc3ccc(OCC(=O)O)cc3)NC(=O)CSC[C@@H](C(=O)N[C@H](CC(N)=O)C(=O)NCCCCCCCCCCC(=O)O)NC(=O)[C@H](CO)NC(=O)[C@H](C(C)C)NC(=O)[C@H](CC3CCCCC3)NC(=O)[C@H](CCN)NC(=O)[C@@H](CC(C)C)NC(=O)[C@H](C)N(C)C(=O)[C@H](C(C)C)NC(=O)[C@H](Cc3ccc(-c4ccccc4)cc3)NC(=O)[C@H](CC(C)C)NC2=O)c1` [Example 2235] ({CH2CO}-Y(Carboxymethyl)[Phe(4-COOH)]D[Phe(3-Me)]L[Bip]V[NMeA][dL][Dab][Cha]VSC[dN][Aun]-OH; thioether N-14), with 20 nM; and `CCC(C)[C@H]1NC(=O)[C@H](Cc2ccc(-c3ccccc3)cc2)NC(=O)[C@H](CC(C)C)NC(=O)[C@H](Cc2c[nH]c3ccccc23)NC(=O)[C@H](CC(=O)O)NC(=O)[C@H](Cc2ccc(C(=O)O)cc2)NC(=O)[C@H](Cc2ccc(OCC(=O)O)cc2)NC(=O)CSC[C@@H](C(=O)NCCCCCCCCCCC(=O)O)NC(=O)[C@H](CCCCN)NC(=O)[C@H](C(C)C)NC(=O)[C@H](CC2CCCCC2)NC(=O)[C@H](CCN)NC(=O)[C@@H](CC(C)C)NC(=O)[C@@H](C)N(C)C1=O` (stereo partly drawn) [Example 2236] ({CH2CO}-Y(Carboxymethyl)[Phe(4-COOH)]DWL[Bip][dIle(3ξ)][dNMeA][dL][Dab][Cha]VKC[Aun]-OH; thioether N-14), with 13.1 nM.
